Source: patent US20240408169A1 (priority 2023, published 2024)
*1 amine or outer side, *2 acyl side, *3 side chain or, on linkers, in order; H or OH if unused. Where a SMILES comes first, the peptide text is derived from it. Bridges are numbered along the chain shown (N, C = ends). [ ]: non-standard residue; d: D form. The star is where a group is joined. X69 = CCOC(=O)N1CC=C(c2ccc(Cl)cc2C[C@@H](C(=O)[*:2])N(C)[*:1])CC1; NMePhe(5-Cl,2-O(2-Pym)) = CN[C@@H](Cc1cc(Cl)ccc1Oc1ncccn1)C(=O)O; X116 = CN([C@@H](Cc1cc(Cl)ccc1-c1cnc2c(c1)ncn2C)C(=O)[*:2])[*:1]; X24 = CN([C@@H](Cc1cc(Cl)ccc1-c1cnn(C(C)(C)C)c1)C(=O)[*:2])[*:1]; X26 = CN([C@@H](Cc1cc(F)ccc1-c1cnn(C2CC2)c1)C(=O)[*:2])[*:1]; X35 = CN([C@@H](Cc1cc(Cl)ccc1-c1cnc2ccnn2c1)C(=O)[*:2])[*:1]; X97 = CN([C@@H](Cc1cc(Cl)ccc1-c1ccn2ncnc2c1)C(=O)[*:2])[*:1]; NMehhhLys(Me) = CN([C@@H](CCCCCCCN(C)[*:3])C(=O)[*:2])[*:1]; X22 = CN([C@@H](Cc1cc(Cl)ccc1-c1cnn(C)c1)C(=O)[*:2])[*:1]; X29 = CN([C@@H](Cc1cc(Cl)ccc1-c1cn[nH]c1)C(=O)[*:2])[*:1]; X44 = Cc1nnc(-c2ccc(Cl)cc2C[C@@H](C(=O)[*:2])N(C)[*:1])o1; NMe(hhhLys) = CN([C@@H](CCCCCCCN[*:3])C(=O)[*:2])[*:1]; Oxane2carbonyl(2R-CF3) = O=C([C@@]1(C(F)(F)F)CCCCO1)*; Cyclobutanecarbonyl(1-CF3) = O=C(C1(C(F)(F)F)CCC1)*; cBuCO(3,3-F2-1-CF3) = O=C(C1(C(F)(F)F)CC(F)(F)C1)*; Pro(trans-4-F) = O=C(O)[C@@H]1C[C@@H](F)CN1; X27 = O=C([C@]1(C(F)(F)F)CCCCO1)*; Gly(cPr) = N[C@H](C(=O)O)C1CC1

What was measured:
CyclinA2/CDK2 = molecular target: T1, CyclinA2/CDK2 (Homo sapiens, UniProt P20248); test: Fluorescence Polarization (FP) competitive binding assay, Cyclin A2/Cdk2; settings: 8 nM Cyclin A2/Cdk2, 2 nM FAM probe; average of 2-3 independent experiments; read-out: Cyclin A FP IC50;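 also: plates equilibrated two hours at room temperature before polarization reading, IC50 fitted from eight-concentration compound titration curves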
T1 construct: purchased CRELUX Protein Services

OVCAR3 cells = test: MTT proliferation assay, OVCAR3; format: cell-based; settings: 5 days compound exposure, 1:3 serial dilution starting at 10 μM;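 also: compound given as an 8- or 10-point series, one day after plating, with exposure covering roughly 3-4 cell doublings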
CyclinB1/CDK1 = molecular target: T2, CyclinB1/CDK1 (Homo sapiens, UniProt P14635); test: Fluorescence Polarization (FP) competitive binding assay, Cyclin B1/Cdk1; settings: 10 nM Cyclin B1/Cdk1, 2 nM FAM probe; average of 2-3 independent experiments; read-out: Cyclin B FP IC50;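 also: fluorescence polarization read after equilibration at room temperature, with IC50 taken from serially diluted dose-response curves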
T2 construct: purchased Eurofins, discovery 14-450

CyclinE1/CDK2 = molecular target: T3, CyclinE1/CDK2 (Homo sapiens, UniProt P24864); test: Fluorescence Polarization (FP) competitive binding assay, Cyclin E1/Cdk2; settings: 10 nM Cyclin E1/Cdk2, 2 nM FAM probe; average of 2-3 independent experiments; read-out: Cyclin E FP IC50;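 also: readings taken after two-hour equilibration at room temperature in HEPES buffer with NaCl, DTT, NP-40 and BSA, IC50 fitted from eight-concentration serial dilution series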
T3 construct: purchased Eurofins, discovery 14-475

NCI-H1048 cells = test: MTT proliferation assay, NCI-H1048; format: cell-based; settings: 5 days compound exposure, 1:3 serial dilution starting at 10 μM;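 also: Dose-response in 96-well plates over 8 or 10 concentration points, with exposure spanning 3-4 cell doublings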
WI-38 cells = test: MTT proliferation assay, WI-38; format: cell-based; settings: 3 days compound exposure, 1:3 serial dilution starting at 10 μM;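 also: Eight- or ten-point dilution series, with exposure length chosen to span about three to four cell doublings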

Row | SMILES | IC50 (CyclinA2/CDK2) | GI50 (OVCAR3 cells) | IC50 (CyclinB1/CDK1) | IC50 (CyclinE1/CDK2) | GI50 (NCI-H1048 cells) | GI50 (WI-38 cells)
1 | CCOC(=O)N1CC=C(c2ccc(Cl)cc2C[C@H]2C(=O)N(C)CCCCCCC[C@H](N(C)C(=O)[C@@H](NC(=O)[C@@H]3C[C@@H](F)CN3C(=O)C3(C(F)(F)F)CC(F)(F)C3)C3CC3)C(=O)N[C@@H](CC(C)C)C(=O)N2C)CC1 [Example 145] ({cBuCO(3,3-F2-1-CF3)}-[Pro(trans-4-F)][Gly(cPr)][NMehhhLys(Me)]L[X69]; lactam 3-C) | 20 nM | 80 nM | 20 nM | 1300 nM | 70 nM | 10100 nM
2 | CC(C)C[C@@H]1NC(=O)[C@@H](N(C)C(=O)[C@@H](NC(=O)[C@@H]2C[C@@H](F)CN2C(=O)[C@@]2(C(F)(F)F)CCCCO2)C2CC2)CCCCCCCN(C)C(=O)[C@H](Cc2cc(F)ccc2-c2cnn(C3CC3)c2)N(C)C1=O [Example 147] ({Oxane2carbonyl(2R-CF3)}-[Pro(trans-4-F)][Gly(cPr)][NMehhhLys(Me)]L[X26]; lactam 3-C) | 20 nM | 10 nM | 20 nM | 100 nM | 10 nM | 1240 nM
3 | CC(C)C[C@@H]1NC(=O)[C@@H](N(C)C(=O)[C@@H](NC(=O)[C@@H]2C[C@@H](F)CN2C(=O)C2(C(F)(F)F)CCC2)C2CC2)CCCCCCCN(C)C(=O)[C@H](Cc2cc(Cl)ccc2Oc2ncccn2)N(C)C1=O [Example 159] ({Cyclobutanecarbonyl(1-CF3)}-[Pro(trans-4-F)][Gly(cPr)][NMehhhLys(Me)]L[NMePhe(5-Cl,2-O(2-Pym))]; lactam 3-C) | 80 nM | 20 nM | 20 nM | 200 nM | 10 nM | 9450 nM
4 | Cc1nnc(-c2ccc(Cl)cc2C[C@H]2C(=O)NCCCCCCC[C@H](N(C)C(=O)[C@@H](NC(=O)[C@@H]3C[C@@H](F)CN3C(=O)C3(C(F)(F)F)CC(F)(F)C3)C3CC3)C(=O)N[C@@H](CC(C)C)C(=O)N2C)o1 [Example 160] ({cBuCO(3,3-F2-1-CF3)}-[Pro(trans-4-F)][Gly(cPr)][NMe(hhhLys)]L[X44]; lactam 3-C) | 20 nM | 20 nM | 20 nM | 270 nM | 20 nM | 11500 nM
5 | CC(C)C[C@@H]1NC(=O)[C@@H](N(C)C(=O)[C@@H](NC(=O)[C@@H]2C[C@@H](F)CN2C(=O)C2(C(F)(F)F)CC(F)(F)C2)C2CC2)CCCCCCCN(C)C(=O)[C@H](Cc2cc(Cl)ccc2-c2cn[nH]c2)N(C)C1=O [Example 167] ({cBuCO(3,3-F2-1-CF3)}-[Pro(trans-4-F)][Gly(cPr)][NMehhhLys(Me)]L[X29]; lactam 3-C) | 20 nM | 10 nM | 20 nM | 280 nM | 10 nM | 19700 nM
6 | CC(C)C[C@@H]1NC(=O)[C@@H](N(C)C(=O)[C@@H](NC(=O)[C@@H]2C[C@@H](F)CN2C(=O)C2(C(F)(F)F)CC(F)(F)C2)C2CC2)C/C=C\CCCCN(C)C(=O)[C@H](Cc2cc(Cl)ccc2-c2cnn(C)c2)N(C)C1=O [Example 168] | 20 nM | 10 nM | 20 nM | 160 nM | 10 nM | 13100 nM
7 | CC(C)C[C@@H]1NC(=O)[C@@H](N(C)C(=O)[C@@H](NC(=O)[C@@H]2C[C@@H](F)CN2C(=O)C2(C(F)(F)F)CC(F)(F)C2)C2CC2)CCCCCCCN(C)C(=O)[C@H](Cc2cc(Cl)ccc2-c2cnc3ccnn3c2)N(C)C1=O [Example 172] ({cBuCO(3,3-F2-1-CF3)}-[Pro(trans-4-F)][Gly(cPr)][NMehhhLys(Me)]L[X35]; lactam 3-C) | 60 nM | 60 nM | 20 nM | 2430 nM | 30 nM | 13700 nM
8 | CC(C)C[C@@H]1NC(=O)[C@@H](N(C)C(=O)[C@@H](NC(=O)[C@@H]2C[C@@H](F)CN2C(=O)C2(C(F)(F)F)CCC2)C2CC2)C/C=C\CCCCN(C)C(=O)[C@H](Cc2cc(Cl)ccc2-c2cnn(C)c2)N(C)C1=O [Example 173] | 20 nM | 10 nM | 20 nM | 100 nM | 10 nM | 12700 nM
9 | CC(C)C[C@@H]1NC(=O)[C@@H](N(C)C(=O)[C@@H](NC(=O)[C@@H]2C[C@@H](F)CN2C(=O)[C@@]2(C(F)(F)F)CCCCO2)C2CC2)C/C=C\CCCCN(C)C(=O)[C@H](Cc2cc(Cl)ccc2-c2cnn(C)c2)N(C)C1=O [Example 174] | 20 nM | 10 nM | 20 nM | 100 nM | 10 nM | 6980 nM
10 | CC(C)C[C@@H]1NC(=O)[C@@H](N(C)C(=O)[C@@H](NC(=O)[C@@H]2C[C@@H](F)CN2C(=O)C2(C(F)(F)F)CC(F)(F)C2)C2CC2)C/C=C\CCCCN(C)C(=O)[C@H](Cc2cc(Cl)ccc2-c2cnn(C3CC3)c2)N(C)C1=O [Example 175] | 20 nM | 10 nM | 20 nM | 130 nM | 10 nM | 6850 nM
11 | CC(C)C[C@@H]1NC(=O)[C@@H](N(C)C(=O)[C@@H](NC(=O)[C@@H]2C[C@@H](F)CN2C(=O)C2(C(F)(F)F)CCC2)C2CC2)C/C=C\CCCCN(C)C(=O)[C@H](Cc2cc(Cl)ccc2-c2cnn(C3CC3)c2)N(C)C1=O [Example 176] | 20 nM | 10 nM | 20 nM | 100 nM | 10 nM | 5480 nM
12 | CC(C)C[C@@H]1NC(=O)[C@@H](N(C)C(=O)[C@@H](NC(=O)[C@@H]2C[C@@H](F)CN2C(=O)C2(C(F)(F)F)CC(F)(F)C2)C2CC2)CCCCCCCN(C)C(=O)[C@H](Cc2cc(Cl)ccc2-c2cnc3c(c2)ncn3C)N(C)C1=O [Example 177] ({cBuCO(3,3-F2-1-CF3)}-[Pro(trans-4-F)][Gly(cPr)][NMehhhLys(Me)]L[X116]; lactam 3-C) | 20 nM | 10 nM | 20 nM | 460 nM | 10 nM | 8960 nM
13 | CC(C)C[C@@H]1NC(=O)[C@@H](N(C)C(=O)[C@@H](NC(=O)[C@@H]2C[C@@H](F)CN2C(=O)C2(C(F)(F)F)CC(F)(F)C2)C2CC2)CCCCCCCN(C)C(=O)[C@H](Cc2cc(Cl)ccc2-c2ccn3ncnc3c2)N(C)C1=O [Example 179] ({cBuCO(3,3-F2-1-CF3)}-[Pro(trans-4-F)][Gly(cPr)][NMehhhLys(Me)]L[X97]; lactam 3-C) | 30 nM | 30 nM | 20 nM | 1130 nM | 10 nM | 11600 nM
14 | CC(C)C[C@@H]1NC(=O)[C@@H](N(C)C(=O)[C@@H](NC(=O)[C@@H]2C[C@@H](F)CN2C(=O)[C@]2(C(F)(F)F)CCCCO2)C2CC2)CCCCCCCN(C)C(=O)[C@H](Cc2cc(Cl)ccc2-c2cnn(C)c2)N(C)C1=O [Example 183] (X27-[Pro(trans-4-F)][Gly(cPr)][NMehhhLys(Me)]L[X22]; lactam 3-C) | 30 nM | 20 nM | 20 nM | 280 nM | 10 nM | 5070 nM
15 | CC(C)C[C@@H]1NC(=O)[C@@H](N(C)C(=O)[C@@H](NC(=O)[C@@H]2C[C@@H](F)CN2C(=O)[C@@]2(C(F)(F)F)CCCCO2)C2CC2)CCCCCCCN(C)C(=O)[C@H](Cc2cc(Cl)ccc2-c2cnn(C)c2)N(C)C1=O [Example 184] ({Oxane2carbonyl(2R-CF3)}-[Pro(trans-4-F)][Gly(cPr)][NMehhhLys(Me)]L[X22]; lactam 3-C) | 20 nM | 10 nM | 20 nM | 100 nM | 10 nM | 3650 nM
16 | CC(C)C[C@@H]1NC(=O)[C@@H](N(C)C(=O)[C@@H](NC(=O)[C@@H]2C[C@@H](F)CN2C(=O)C2(C(F)(F)F)CCC2)C2CC2)CCCCCCCN(C)C(=O)[C@H](Cc2cc(Cl)ccc2-c2cnn(C)c2)N(C)C1=O [Example 185] ({Cyclobutanecarbonyl(1-CF3)}-[Pro(trans-4-F)][Gly(cPr)][NMehhhLys(Me)]L[X22]; lactam 3-C) | 20 nM | 10 nM | 20 nM | 110 nM | 10 nM | 10400 nM
17 | CC(C)C[C@@H]1NC(=O)[C@@H](N(C)C(=O)[C@@H](NC(=O)[C@@H]2C[C@@H](F)CN2C(=O)C2(C(F)(F)F)CCC2)C2CC2)CCCCCCCN(C)C(=O)[C@H](Cc2cc(F)ccc2-c2cnn(C3CC3)c2)N(C)C1=O [Example 186] ({Cyclobutanecarbonyl(1-CF3)}-[Pro(trans-4-F)][Gly(cPr)][NMehhhLys(Me)]L[X26]; lactam 3-C) | 20 nM | 10 nM | 20 nM | 100 nM | 10 nM | 8680 nM
18 | CC(C)C[C@@H]1NC(=O)[C@@H](N(C)C(=O)[C@@H](NC(=O)[C@@H]2C[C@@H](F)CN2C(=O)C2(C(F)(F)F)CC(F)(F)C2)C2CC2)CCCCCCCN(C)C(=O)[C@H](Cc2cc(Cl)ccc2-c2cnn(C(C)(C)C)c2)N(C)C1=O [Example 187] ({cBuCO(3,3-F2-1-CF3)}-[Pro(trans-4-F)][Gly(cPr)][NMehhhLys(Me)]L[X24]; lactam 3-C) | 20 nM | 10 nM | 20 nM | 340 nM | 10 nM | 8660 nM
